For three compounds, IC50 and Ki results are on record in ChEMBL document CHEMBL1127157, “Synthesis and biological activity of 2-desamino and 4-deoxy analogs of 5,10-dideazatetrahydrofolic acid (DDATHF)” (Bioorg Med Chem Lett, 1993).

One test concerns CCRF-CEM. The test can be described thus: Tested for the growth inhibition of CCRF-CEM, a human T-cell derived lymphoblastic leukemic cell line. Format: functional, cell-based.
Test [1] has as its target T1, Trifunctional purine biosynthetic protein adenosine-3 (Homo sapiens, UniProt P22102).
T1 sequence (P22102 whole entry): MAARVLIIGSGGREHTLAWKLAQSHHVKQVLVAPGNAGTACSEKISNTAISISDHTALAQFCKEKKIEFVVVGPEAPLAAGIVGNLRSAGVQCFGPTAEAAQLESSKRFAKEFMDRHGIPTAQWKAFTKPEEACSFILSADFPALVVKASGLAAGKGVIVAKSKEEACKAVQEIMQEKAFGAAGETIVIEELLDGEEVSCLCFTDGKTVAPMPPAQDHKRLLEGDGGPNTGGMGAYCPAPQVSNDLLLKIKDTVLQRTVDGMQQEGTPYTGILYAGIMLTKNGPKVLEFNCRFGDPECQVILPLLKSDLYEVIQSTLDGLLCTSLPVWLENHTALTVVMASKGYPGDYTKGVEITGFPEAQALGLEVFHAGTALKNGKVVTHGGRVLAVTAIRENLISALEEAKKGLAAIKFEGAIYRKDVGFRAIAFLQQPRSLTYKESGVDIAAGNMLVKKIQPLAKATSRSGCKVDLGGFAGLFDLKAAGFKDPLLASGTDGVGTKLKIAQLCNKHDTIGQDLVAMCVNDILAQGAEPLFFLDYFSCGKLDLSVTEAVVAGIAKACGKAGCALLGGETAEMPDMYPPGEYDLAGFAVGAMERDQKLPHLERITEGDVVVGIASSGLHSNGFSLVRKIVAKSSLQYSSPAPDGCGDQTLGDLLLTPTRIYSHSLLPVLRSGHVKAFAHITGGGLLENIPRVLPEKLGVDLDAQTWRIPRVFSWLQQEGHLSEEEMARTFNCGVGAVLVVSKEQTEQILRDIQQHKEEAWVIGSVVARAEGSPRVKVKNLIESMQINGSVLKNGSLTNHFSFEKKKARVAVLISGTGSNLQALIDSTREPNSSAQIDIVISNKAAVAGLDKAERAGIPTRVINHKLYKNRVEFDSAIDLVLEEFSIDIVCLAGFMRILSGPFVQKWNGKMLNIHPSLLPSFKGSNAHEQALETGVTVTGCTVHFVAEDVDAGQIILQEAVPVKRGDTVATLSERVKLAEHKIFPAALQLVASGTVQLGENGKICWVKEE
Briefly: Tested for the inhibition of recombinant human monofunctional Glycinamide ribonucleotide formyltransferase.

Test [2] has as its target T2, Trifunctional purine biosynthetic protein adenosine-3 (Mus musculus, UniProt Q64737).
T2 sequence (Q64737 whole entry): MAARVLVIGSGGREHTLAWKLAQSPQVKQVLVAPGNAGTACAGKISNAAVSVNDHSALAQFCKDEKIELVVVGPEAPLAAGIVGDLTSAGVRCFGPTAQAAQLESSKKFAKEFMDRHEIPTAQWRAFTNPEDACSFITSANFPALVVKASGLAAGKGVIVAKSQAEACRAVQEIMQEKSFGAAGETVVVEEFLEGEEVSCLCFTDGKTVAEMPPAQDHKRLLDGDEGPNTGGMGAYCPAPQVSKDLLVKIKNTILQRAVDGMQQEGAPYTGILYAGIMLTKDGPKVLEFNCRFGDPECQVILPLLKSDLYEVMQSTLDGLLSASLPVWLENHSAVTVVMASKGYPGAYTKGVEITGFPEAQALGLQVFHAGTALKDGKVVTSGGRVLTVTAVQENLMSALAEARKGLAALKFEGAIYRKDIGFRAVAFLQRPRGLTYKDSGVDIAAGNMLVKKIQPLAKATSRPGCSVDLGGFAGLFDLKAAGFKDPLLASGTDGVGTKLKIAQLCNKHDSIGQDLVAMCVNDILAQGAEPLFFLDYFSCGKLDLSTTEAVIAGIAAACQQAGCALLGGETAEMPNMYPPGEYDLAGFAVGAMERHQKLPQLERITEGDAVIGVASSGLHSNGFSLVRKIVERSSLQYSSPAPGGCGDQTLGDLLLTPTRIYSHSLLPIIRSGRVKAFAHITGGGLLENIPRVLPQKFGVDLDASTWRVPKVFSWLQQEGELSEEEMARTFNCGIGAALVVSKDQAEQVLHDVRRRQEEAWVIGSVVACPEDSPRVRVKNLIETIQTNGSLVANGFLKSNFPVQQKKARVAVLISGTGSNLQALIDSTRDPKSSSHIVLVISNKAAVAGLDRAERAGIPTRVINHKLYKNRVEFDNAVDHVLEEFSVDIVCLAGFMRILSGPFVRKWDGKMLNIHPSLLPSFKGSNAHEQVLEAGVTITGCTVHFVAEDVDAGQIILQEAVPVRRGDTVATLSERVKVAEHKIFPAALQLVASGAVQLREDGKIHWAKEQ
Briefly: Tested for the inhibition of trifunctional Glycinamide ribonucleotide formyltransferase isolated from murine L1210 cells. Type of test: functional.

In brackets after ≈: the same amount, converted by molar mass.

`Nc1ncc2c(n1)NCC(CCc1ccc(C(=O)N[C@@H](CCC(=O)O)C(=O)O)cc1)C2` (stereo partly specified): in the test on CCRF-CEM, the half-inhibitory concentration (IC50) stood at 4 ng/mL (≈ 9.36 nM). Also, the Ki in test [1] is 186 µM.
As for `O=C(O)CC[C@H](NC(=O)c1ccc(CCC2CNc3ncnc(O)c3C2)cc1)C(=O)O` (stereo partly specified), the IC50 in the test with CCRF-CEM is over 20000 ng/mL. For the same compound, the Ki in test [2] is 27 µM; in test [1], 82.1 µM.
In test [2], `Nc1nc2c(c(=O)[nH]1)C[C@@H](CCc1ccc(C(=O)N[C@@H](CCC(=O)O)C(=O)O)cc1)CN2` [LOMETREXOL] yielded a Ki of 0.12 µM.

A word on the IC50: it is the concentration that inhibits the measured activity by half. Lower therefore signals greater potency in that assay. The term Ki denotes a dissociation constant, usually derived from enzyme kinetics or from competition with a known ligand.
